Test results reported in ChEMBL document CHEMBL5360556, “An overview of compound properties, multiparameter optimization, and computational drug design methods for PARP-1 inhibitor drugs” (Eur J Med Chem, 2023).
Converted amounts (≈) assume the structure as drawn.

Columns and labels:
[1] = target: T1, Poly [ADP-ribose] polymerase 1 (Homo sapiens, UniProt P09874); assay: Inhibition of PARP1 (unknown origin) incubated for 60 mins by ELISA assay
[2] = Dissociation constant, pKa of the compound under acidic condition; type: physicochemical
[3] = Lipophilicity, logP of compound; type: physicochemical; conditions: octanol/water
[4] = Dissociation constant, pKa of the compound under basic condition; type: physicochemical
[5] = Lipophilicity, logD of compound at pH 7.4; type: physicochemical; conditions: buffer
[6] = target: T1, Poly [ADP-ribose] polymerase 1; assay: Inhibition of PARP1 (unknown origin) using Streptavidin-HRP as substrate incubated for 1 hr by absorbance based analysis
[7] = Solubility of the compound; type: physicochemical
[8] = target: Voltage-gated inwardly rectifying potassium channel KCNH2 (Homo sapiens, UniProt Q12809); assay: Inhibition of hERG; type: toxicity
[9] = target: T1, Poly [ADP-ribose] polymerase 1; assay: Inhibition of PARP1 (unknown origin)
[10] = target: T1, Poly [ADP-ribose] polymerase 1; assay: Inhibition of PARP1 CD (unknown origin) by colorimetric assay
[11] = target: T1, Poly [ADP-ribose] polymerase 1; assay: Inhibition of PARP1 (unknown origin) incubated for 60 mins by absorbance based analysis

T1 sequence (P09874 whole entry): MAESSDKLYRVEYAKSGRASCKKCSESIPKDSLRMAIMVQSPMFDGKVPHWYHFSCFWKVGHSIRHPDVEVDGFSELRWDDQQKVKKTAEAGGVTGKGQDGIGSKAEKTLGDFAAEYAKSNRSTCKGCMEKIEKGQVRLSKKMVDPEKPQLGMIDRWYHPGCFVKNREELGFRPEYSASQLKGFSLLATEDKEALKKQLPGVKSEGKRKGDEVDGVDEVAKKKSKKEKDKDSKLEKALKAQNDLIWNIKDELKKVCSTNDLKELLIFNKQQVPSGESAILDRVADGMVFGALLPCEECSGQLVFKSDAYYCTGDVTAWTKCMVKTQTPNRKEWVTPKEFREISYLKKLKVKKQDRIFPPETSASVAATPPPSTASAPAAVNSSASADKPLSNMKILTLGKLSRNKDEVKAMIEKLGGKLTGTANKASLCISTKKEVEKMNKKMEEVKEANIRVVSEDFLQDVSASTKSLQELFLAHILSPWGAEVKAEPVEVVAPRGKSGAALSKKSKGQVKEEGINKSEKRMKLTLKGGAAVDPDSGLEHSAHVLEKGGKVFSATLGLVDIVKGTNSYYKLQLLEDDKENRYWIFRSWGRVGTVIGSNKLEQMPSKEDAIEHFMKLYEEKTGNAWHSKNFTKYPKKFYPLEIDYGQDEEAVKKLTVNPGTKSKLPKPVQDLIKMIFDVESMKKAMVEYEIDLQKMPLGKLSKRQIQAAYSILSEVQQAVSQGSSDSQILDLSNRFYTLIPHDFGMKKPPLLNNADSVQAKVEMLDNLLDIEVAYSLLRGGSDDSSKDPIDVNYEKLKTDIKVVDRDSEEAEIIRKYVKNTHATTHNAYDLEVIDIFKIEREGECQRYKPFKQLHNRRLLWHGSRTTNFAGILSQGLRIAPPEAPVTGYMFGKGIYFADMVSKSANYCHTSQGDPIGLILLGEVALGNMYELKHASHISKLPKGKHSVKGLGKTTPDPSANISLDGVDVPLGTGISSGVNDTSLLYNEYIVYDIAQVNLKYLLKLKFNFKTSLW
Chain of Voltage-gated inwardly rectifying potassium channel KCNH2 (Q12809 whole entry): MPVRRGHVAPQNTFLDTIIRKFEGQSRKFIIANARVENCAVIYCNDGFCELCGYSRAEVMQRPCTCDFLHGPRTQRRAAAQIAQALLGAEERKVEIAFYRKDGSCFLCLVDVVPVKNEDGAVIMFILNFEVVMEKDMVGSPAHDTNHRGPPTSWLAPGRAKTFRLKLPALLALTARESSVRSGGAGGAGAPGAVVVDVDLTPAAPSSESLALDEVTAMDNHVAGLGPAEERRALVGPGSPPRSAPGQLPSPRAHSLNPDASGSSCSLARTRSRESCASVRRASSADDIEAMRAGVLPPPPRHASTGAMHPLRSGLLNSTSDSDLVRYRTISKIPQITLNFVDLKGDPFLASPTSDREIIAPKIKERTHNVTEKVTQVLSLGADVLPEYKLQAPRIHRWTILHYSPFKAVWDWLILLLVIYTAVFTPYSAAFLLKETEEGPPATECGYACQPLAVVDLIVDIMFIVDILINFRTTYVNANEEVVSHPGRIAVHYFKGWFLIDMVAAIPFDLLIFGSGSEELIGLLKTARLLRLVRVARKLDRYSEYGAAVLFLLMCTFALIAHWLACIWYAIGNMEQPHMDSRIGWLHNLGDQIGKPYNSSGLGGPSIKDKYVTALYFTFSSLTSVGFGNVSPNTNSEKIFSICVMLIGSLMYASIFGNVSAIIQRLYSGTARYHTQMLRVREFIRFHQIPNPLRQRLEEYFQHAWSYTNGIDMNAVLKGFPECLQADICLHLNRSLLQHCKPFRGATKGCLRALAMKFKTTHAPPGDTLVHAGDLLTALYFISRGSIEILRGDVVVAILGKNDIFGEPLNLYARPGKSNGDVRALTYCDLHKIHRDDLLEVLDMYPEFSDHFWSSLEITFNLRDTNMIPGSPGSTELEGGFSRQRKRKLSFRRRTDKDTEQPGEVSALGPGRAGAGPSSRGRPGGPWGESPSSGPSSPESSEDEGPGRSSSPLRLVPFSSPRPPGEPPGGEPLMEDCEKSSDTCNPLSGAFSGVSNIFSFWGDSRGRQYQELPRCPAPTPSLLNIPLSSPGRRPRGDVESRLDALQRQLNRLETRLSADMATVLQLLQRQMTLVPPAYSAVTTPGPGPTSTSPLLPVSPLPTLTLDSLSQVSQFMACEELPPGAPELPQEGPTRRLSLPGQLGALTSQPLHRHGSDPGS

Compound: O=C(CSc1nc2sc3c(c2c(=O)[nH]1)CCC3)N(CCO)CCO
- IC50 [1]: 560 nM

Compound: CCN(c1ccccc1)S(=O)(=O)c1ccc(NC(=O)C2CC(=O)c3cc(C)c(C)cc3O2)cc1 (configuration not stated)
- IC50 [1]: 63000 nM

Compound: O=C(c1cc(Cc2n[nH]c(=O)c3ccccc23)ccc1F)N1CCN(C(=O)C2CC2)CC1 [OLAPARIB]
- pKa [2]: 9.96
- logP [3]: 1.96
- pKa [4]: 0.9
- logD [5]: 1.96

Compound: O=C(NN1CCCC1)c1cc(Cc2n[nH]c(=O)c3cccnc23)ccc1F
- IC50 [6]: 36.7 nM

Compound: NC(=O)c1cccc2cn(-c3ccc([C@@H]4CCCNC4)cc3)nc12 [NIRAPARIB]
- pKa [2]: 14
- logP [3]: 2.47
- solubility [7]: 700 µg/mL (≈ 2180 µM)
- pKa [4]: 10.1
- logD [5]: -0.11
- IC50 [8]: 10000 nM

Compound: O=C1CCc2cc(-c3ccccc3F)ccc2C2(CCCCC2)N1
- IC50 [9]: 19 nM

Compound: CC(=O)C1=C(C)N(C(=O)c2ccccc2)C(NNS(=O)(=O)c2ccc3[nH]c(=O)c(=O)[nH]c3c2)S1 (configuration not stated)
- IC50 [10]: 8.25 nM

Compound: Cn1ncnc1[C@H]1c2n[nH]c(=O)c3cc(F)cc(c23)N[C@@H]1c1ccc(F)cc1 [TALAZOPARIB]
- pKa [2]: 9.48
- logP [3]: 2.11
- solubility [7]: 17 µg/mL (≈ 44.7 µM)
- pKa [4]: 1.66
- logD [5]: 2.11

Compound: CC1=C(NN)SC(NNS(=O)(=O)c2ccc3[nH]c(=O)c(=O)[nH]c3c2)N1C(=O)c1ccccc1 (configuration not stated)
- IC50 [10]: 2.31 nM

Compound: C[N+]1(C)CCc2cc(O)c(O)cc2[C@H]1Cc1ccc(O)c(O)c1
- IC50 [11]: 1600 nM

Compound: Oc1ccc(C2CNCc3c(O)cccc32)cc1O (racemic)
- IC50 [11]: 240 nM

Compound: CC1=CSC(NNS(=O)(=O)c2ccc3[nH]c(=O)c(=O)[nH]c3c2)N1C(=O)c1ccccc1 (configuration not stated)
- IC50 [10]: 6.35 nM

Compound: Cc1cc(O)nn1S(=O)(=O)c1ccc2[nH]c(=O)c(=O)[nH]c2c1
- IC50 [10]: 8.73 nM

Compound: CNCc1ccc(-c2[nH]c3cc(F)cc4c3c2CCNC4=O)cc1 [RUCAPARIB]
- pKa [2]: 13.2
- logP [3]: 2.45
- solubility [7]: 1000 µg/mL (≈ 3090 µM)
- pKa [4]: 9.32
- logD [5]: 0.55
- IC50 [8]: 23000 nM

Compound: C[N+]12CCc3cc(O)c(O)cc3C1Cc1cc3c(cc12)OCO3 (configuration not stated)
- IC50 [11]: 960 nM
